AC50 and EC50 data for 51 compounds are collected here from ChEMBL document CHEMBL1201862, “PubChem BioAssay data set” (2004).

Some targets named below: Cytochrome P450 2D6 (Homo sapiens, UniProt P10635); Cytochrome P450 2C9 (Homo sapiens, UniProt P11712); Cytochrome P450 3A4 (Homo sapiens, UniProt P08684).
Another data set deals with Cytochrome P450 2C19 (Homo sapiens, UniProt P33261). In words: Cytochrome panel assay with activity outcomes. Panel member name: p450-cyp2c19 Compounds with AC50 equal or less than 10 uM are considered active. The class given is functional.
Cytochrome P450 2C19, sequence (P33261 whole entry): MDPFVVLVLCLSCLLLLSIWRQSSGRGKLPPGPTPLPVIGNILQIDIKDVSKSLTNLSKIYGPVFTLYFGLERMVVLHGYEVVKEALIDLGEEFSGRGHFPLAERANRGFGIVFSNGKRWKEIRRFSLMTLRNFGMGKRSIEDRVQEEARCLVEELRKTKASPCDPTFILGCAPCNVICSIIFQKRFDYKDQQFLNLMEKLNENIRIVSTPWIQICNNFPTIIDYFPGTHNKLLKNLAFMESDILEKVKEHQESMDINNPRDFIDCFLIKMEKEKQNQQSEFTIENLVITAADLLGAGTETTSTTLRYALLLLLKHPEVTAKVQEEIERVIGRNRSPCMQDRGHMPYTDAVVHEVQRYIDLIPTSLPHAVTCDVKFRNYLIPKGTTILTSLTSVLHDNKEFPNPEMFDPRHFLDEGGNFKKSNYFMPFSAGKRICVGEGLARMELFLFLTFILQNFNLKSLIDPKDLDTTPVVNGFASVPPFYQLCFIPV
Data set [1] can be described thus: inhibitors of firefly luciferase expression or activity, dose response, H4 neuroglioma cells, luminescence (AID 1990). In kind it is functional, cell-based.
Data set [2] can be described thus: inhibitors of SNCA 5'UTR-driven reporter translation, confirmation, H4 neuroglioma cells, luminescence (AID 1988). The class given is functional, cell-based.
Data set [3] can be described thus: Luminescence Cell-Based Dose Response HTS to Identify Inhibitors of 5'UTR Stem-Loop Driven Prion Protein mRNA Translation in H4 Neuroglioblastoma Cells. [Related pubchem assays: 1827 (Project Summary), 1813 (Primary HTS)]. In kind it is functional.
Data set [4] addresses T1, Corticotropin-releasing factor receptor 2/Corticotropin-releasing factor-binding protein (Homo sapiens, UniProt P24387+Q13324).
T1 sequence (Q13324 whole entry): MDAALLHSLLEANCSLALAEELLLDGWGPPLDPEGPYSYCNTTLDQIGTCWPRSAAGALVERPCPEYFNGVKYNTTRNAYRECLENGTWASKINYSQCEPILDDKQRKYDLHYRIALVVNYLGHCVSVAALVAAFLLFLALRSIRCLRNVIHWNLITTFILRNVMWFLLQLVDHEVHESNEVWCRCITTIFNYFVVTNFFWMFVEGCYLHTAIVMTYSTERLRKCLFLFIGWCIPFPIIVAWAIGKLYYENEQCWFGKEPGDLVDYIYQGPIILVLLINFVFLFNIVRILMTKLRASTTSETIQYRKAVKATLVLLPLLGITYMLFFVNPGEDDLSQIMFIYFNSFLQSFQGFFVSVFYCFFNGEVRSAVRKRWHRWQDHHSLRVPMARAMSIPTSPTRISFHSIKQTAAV
T1 sequence (P24387 whole entry): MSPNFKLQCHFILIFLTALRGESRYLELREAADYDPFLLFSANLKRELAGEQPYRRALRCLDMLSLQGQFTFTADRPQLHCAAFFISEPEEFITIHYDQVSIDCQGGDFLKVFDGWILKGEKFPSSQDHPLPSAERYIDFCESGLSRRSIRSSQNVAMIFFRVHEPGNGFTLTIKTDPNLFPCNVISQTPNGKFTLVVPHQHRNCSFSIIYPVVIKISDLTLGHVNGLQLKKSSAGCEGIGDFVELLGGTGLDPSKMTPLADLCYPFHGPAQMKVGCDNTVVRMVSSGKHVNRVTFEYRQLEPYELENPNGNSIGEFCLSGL
In words: activators of CRF receptor 2 with binding protein – uHTS hits, confirmation (AID 602473). In kind it is functional. To be noted: read-out: EC50_Mean.

Calls of active or inactive are those of the source.

Cytochrome P450 3A4, sequence (P08684 whole entry): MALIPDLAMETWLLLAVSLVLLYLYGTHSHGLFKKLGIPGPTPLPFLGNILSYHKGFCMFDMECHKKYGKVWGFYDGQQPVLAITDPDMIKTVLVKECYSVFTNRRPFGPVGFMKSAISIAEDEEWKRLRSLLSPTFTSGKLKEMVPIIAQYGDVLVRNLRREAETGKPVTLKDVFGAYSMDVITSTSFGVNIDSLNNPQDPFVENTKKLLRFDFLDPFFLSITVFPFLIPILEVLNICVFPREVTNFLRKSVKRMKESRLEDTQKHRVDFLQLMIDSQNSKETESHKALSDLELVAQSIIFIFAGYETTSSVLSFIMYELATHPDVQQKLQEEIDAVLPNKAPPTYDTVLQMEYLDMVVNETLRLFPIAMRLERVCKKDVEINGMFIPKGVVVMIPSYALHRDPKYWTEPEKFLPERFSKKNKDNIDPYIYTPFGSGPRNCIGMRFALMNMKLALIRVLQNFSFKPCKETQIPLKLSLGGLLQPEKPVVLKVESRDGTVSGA
Cytochrome P450 2C9, sequence (P11712 whole entry): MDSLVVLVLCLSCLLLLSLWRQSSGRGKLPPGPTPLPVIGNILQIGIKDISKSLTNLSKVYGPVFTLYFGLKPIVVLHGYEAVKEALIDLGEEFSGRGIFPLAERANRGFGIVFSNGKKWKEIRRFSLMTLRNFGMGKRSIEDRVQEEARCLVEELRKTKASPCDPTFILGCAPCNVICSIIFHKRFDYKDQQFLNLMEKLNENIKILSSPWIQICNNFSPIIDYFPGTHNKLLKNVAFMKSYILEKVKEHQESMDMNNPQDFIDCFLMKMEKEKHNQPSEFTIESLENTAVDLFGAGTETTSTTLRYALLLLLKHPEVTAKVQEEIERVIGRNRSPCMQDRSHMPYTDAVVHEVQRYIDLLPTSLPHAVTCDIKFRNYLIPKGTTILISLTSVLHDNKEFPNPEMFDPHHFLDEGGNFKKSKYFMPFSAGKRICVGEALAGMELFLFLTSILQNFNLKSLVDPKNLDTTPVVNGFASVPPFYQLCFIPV
Cytochrome P450 2D6, sequence (P10635 whole entry): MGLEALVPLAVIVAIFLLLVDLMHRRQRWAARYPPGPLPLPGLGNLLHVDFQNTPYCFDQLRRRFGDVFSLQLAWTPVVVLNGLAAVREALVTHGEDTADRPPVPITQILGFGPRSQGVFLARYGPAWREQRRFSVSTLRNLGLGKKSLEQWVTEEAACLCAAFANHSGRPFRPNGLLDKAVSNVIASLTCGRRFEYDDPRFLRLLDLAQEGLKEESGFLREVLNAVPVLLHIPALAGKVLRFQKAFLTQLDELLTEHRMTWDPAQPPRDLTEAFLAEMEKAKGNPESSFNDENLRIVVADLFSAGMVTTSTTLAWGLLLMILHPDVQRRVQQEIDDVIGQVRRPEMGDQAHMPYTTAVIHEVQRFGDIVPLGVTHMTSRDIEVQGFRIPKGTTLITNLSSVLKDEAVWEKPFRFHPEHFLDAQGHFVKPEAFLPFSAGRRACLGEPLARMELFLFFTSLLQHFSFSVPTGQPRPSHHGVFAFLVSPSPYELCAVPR

For orientation: AC50 means the concentration at which the activity in the assay is half-maximal. On to `Cc1cc(C)c(/C=C2/C(=O)Nc3ccccc32)[nH]1`, for which the AC50 was 0.398 µM (inconclusive) at Cytochrome P450 2D6 and 2.51 µM (inconclusive) on Cytochrome P450 2C9. `Cc1noc(C)c1-c1nccc(N(C)C)n1`: the AC50 at Cytochrome P450 3A4 is 31.6 µM (inconclusive). Take `c1ccc(Nc2ncnc3ccc(-c4ccoc4)cc23)cc1`: on Cytochrome P450 2D6, the AC50 is 20 µM (inconclusive).

Take `COc1ccc2[nH]cc(CCNc3ncncc3-c3c(C)noc3C)c2c1`: the AC50 on Cytochrome P450 2D6 is 20 µM (inconclusive); at Cytochrome P450 2C9, 1.26 µM (inconclusive). For `COc1ccc([N+](=O)[O-])cc1COc1ccc2c(-c3ccccc3)cc(=O)oc2c1`, the AC50 on Cytochrome P450 2C19 (read-out: AC50) was 3.55 µM (inconclusive).

On to `COc1ccc(NC(=O)c2cc(S(=O)(=O)N3CCCCC3)c[nH]2)cc1Cl`, for which the results for the EC50 in data set [1], in data set [2] and in data set [3] were 23.7 µM (active), > 120 µM (not active) and 18.4 µM (active), respectively. Turning to `COC(=O)c1c(C)oc2ccc(N(C(=O)c3ccncc3)S(=O)(=O)c3ccc(C)cc3)cc12`, the EC50 in data set [1] is > 120 µM (not active); in data set [2], 8.07 µM (active); in data set [3], 10.9 µM (active). As to `CN(C)CCNC(=O)C(=O)NCC1OCCCN1S(=O)(=O)c1cccs1` (stereo not drawn), the EC50 in data set [1], in data set [2] and in data set [3] was > 120 µM (not active) each time. As to `CC(=O)Nc1c(C(=O)N2CCOCC2)cnn1-c1ccc(C)c(C)c1`, the AC50 at Cytochrome P450 3A4 was 3.98 µM (inconclusive); at Cytochrome P450 2C19, “inconclusive”.

`Cc1ccccc1NC(=O)NC1(C(=O)N2CCOCC2)CCCCC1`: the EC50 in data set [1], in data set [2] and in data set [3] was > 120 µM (not active) each time. With `COc1ccc(CNC(=O)[C@H]2C[C@@H]2[C@H](NP(=O)(c2ccccc2)c2ccccc2)c2ccccc2)cc1OC`, at Cytochrome P450 2C9, the AC50 is 25.1 µM (inconclusive). As to `c1ccc(-c2ccc(N3CC4(CCNCC4)C3)cc2)cc1`, the AC50 on Cytochrome P450 3A4 and at Cytochrome P450 2D6 was 25.1 µM (inconclusive) each time. With `CC12CCC(C(=O)Nc3cccc4ccccc34)(C1Br)C2(C)C` (stereo not drawn), the AC50 at Cytochrome P450 2D6 is 20 µM (inconclusive); on Cytochrome P450 2C9, 2.51 µM (inconclusive).

`O=C(c1cc(C(F)(F)F)cc(C(F)(F)F)c1)N1CCC[C@@]2(CCN(c3ccccc3)C2)C1`: at Cytochrome P450 3A4, the AC50 was 3.16 µM (inconclusive).

As to `CCCCCC(=O)Nc1cc2nc(O)cc(COC)c2cc1C`, the AC50 on Cytochrome P450 2C9 is 10 µM (inconclusive). As for `Cc1ccc(NC(=O)CN2CCC(NC(=O)c3cccc(F)c3)CC2)cc1C`, the EC50 is > 120 µM (not active) in data set [1], > 120 µM (not active) in data set [2] and 21.6 µM (active) in data set [3]. On to `O=C1[C@H]2[C@H]3[C@H](O)[C@H](O)C/C(=N/OC[C@@H](O)COCc4ccco4)[C@H]3CC[C@@H]2C(=O)N1c1cccc(Oc2ccccc2)c1`, for which the AC50 on Cytochrome P450 3A4 is 3.16 µM (inconclusive). As for `CCc1ccc(NC(=O)C(CC)c2ccccc2)cc1` (stereo not drawn), in data set [4], the EC50 is 10.4 µM (active).

On to `O=C(Nc1cc(C(F)(F)F)ccc1Cl)C(Sc1cccc[n+]1[O-])c1ccccc1` (stereo not drawn), for which the EC50 in data set [4] was > 53 µM (inactive).

Consider `Cc1ccc(SCN2CCCCC2)cc1.O=C(Cl)c1ccc([N+](=O)[O-])cc1`, for which, at Cytochrome P450 2C19 (read-out: AC50), the AC50 is 2.51 µM (inconclusive). With `CCCCC#Cc1nc(N)c2ncn([C@@H]3O[C@@H](C(=O)NCC)[C@H](O)[C@@H]3O)c2n1`, the AC50 was 15.8 µM (inconclusive) on Cytochrome P450 3A4, 25.1 µM (inconclusive) at Cytochrome P450 2C9 and 39.8 µM (inconclusive) at Cytochrome P450 2C19 (read-out: AC50). Turning to `Oc1c(CN2CCOCC2)ccc(CN2CCOCC2)c1O`, on Cytochrome P450 2C9, the AC50 is 7.94 µM (inconclusive). `CCOc1ccc(C(C)NC(=S)NCc2ccc(Cl)cc2)cc1` (stereo not drawn): the EC50 in data set [4] was 14.6 µM (active). For `CN1CCN(c2ncc3nc(-c4cc(F)cc(F)c4)c(=O)n(C4CC4)c3n2)CC1`, the AC50 on Cytochrome P450 3A4 was 39.8 µM (inconclusive). As to `COc1ccc(-n2c(SCC(=O)Nc3ccccc3)nnc2-c2ccoc2C)cc1`, the EC50 in data set [1] is > 120 µM (not active); in data set [2], 15.9 µM (active); in data set [3] it was 29.7 µM (active).

With `CNc1ccnc(-c2ccccc2OC)n1`, the AC50 at Cytochrome P450 3A4 is 31.6 µM (inconclusive). On to `CNc1ncncc1-c1ccccc1CN(C)C`, for which the AC50 result at Cytochrome P450 2C19 was “inconclusive”. Regarding `COC(=O)[C@@H](NC(=O)Nc1ccc(C(C)=O)cc1)C(C)C`, the AC50 at Cytochrome P450 2C9 is 3.55 µM (inconclusive). For the compound `COc1cccc(Cn2c(=O)c(C)nc3cnc(Nc4ccccc4)nc32)c1`, the AC50 on Cytochrome P450 2D6 is 1 µM (inconclusive). Turning to `CC(=O)[C@@H]1CC[C@@H]2[C@@H]3CC=C4C[C@H](OS(=O)(=O)O)CC[C@@]4(C)[C@H]3CC[C@]21C`, the AC50 on Cytochrome P450 3A4 was 12.6 µM (inconclusive). Take `COc1ccc(-n2c(=O)c(CCc3ccccc3)nc3cnc(OC)nc32)cc1`: the AC50 is 20 µM (inconclusive) at Cytochrome P450 2D6 and 7.94 µM (inconclusive) at Cytochrome P450 2C9.

As to `Cc1cc(C)c(OCC(=O)Nc2ccccc2N2CCOCC2)c(C)c1`, the EC50 in data set [4] is > 53 µM (inactive). Take `c1csc(CNc2ncncc2-c2ccoc2)c1`: the AC50 on Cytochrome P450 2C9 is 0.794 µM (inconclusive). `O=C1c2ccccc2NC(c2ccc(F)cc2)N1Cc1ccco1` (stereo not drawn): the AC50 at Cytochrome P450 3A4 was 14.1 µM (inconclusive); at Cytochrome P450 2D6, 0.398 µM (inconclusive). With `CO[C@H]1COC(=O)CCC[C@@H](C)[C@H](OC)COC(=O)[C@H]2CCCN2C(=O)C/C=C\[C@@H]1C`, the AC50 at Cytochrome P450 3A4 is 5.01 µM (inconclusive). Same read-out and setting: for `CCOC(=O)c1[nH]c(C)c(C(=O)N2CCC3(CC2)OCCO3)c1C` the value was 22.4 µM (inconclusive).

For `Cc1cc2cccc(C)c2nc1SCC(=O)N(C)c1nc(-c2ccccc2)cs1`, the AC50 at Cytochrome P450 2C9 was 2.82 µM (inconclusive).

In the case of `CCOc1cc2[nH]c(=O)n(CCC(=O)NCc3ccc(OC)cc3)c(=O)c2cc1OCC`, the AC50 on Cytochrome P450 2C9 was 2 µM (inconclusive). Turning to `COc1cccc(NC(=O)Cc2c(C(=O)O)[nH]c3ccccc23)c1`, the AC50 on Cytochrome P450 3A4 is 15.8 µM (inconclusive); on Cytochrome P450 2C9 it was 22.4 µM (inconclusive). Take `O=c1cnc2cnc(Nc3ccccc3)nc2n1C1CC1`: the values for the AC50 at Cytochrome P450 3A4, at Cytochrome P450 2C9 and on Cytochrome P450 2C19 (read-out: AC50) were 25.1 µM (inconclusive), 31.6 µM (inconclusive) and 20 µM (inconclusive), respectively.

With `CC(=O)OC[C@@H]1O[C@H](C/C=N\O[C@@H](C)CN2CCCc3nc(C)c(C)cc32)C=C[C@@H]1OC(C)=O`, on Cytochrome P450 3A4, the AC50 was 3.98 µM (inconclusive).

In the case of `COC(=O)N1CCC2(CCCN(Cc3ccc(C#N)cc3)C2)CC1`, the values for the AC50 at Cytochrome P450 3A4 and on Cytochrome P450 2C19 (read-out: AC50) were 15.8 µM (inconclusive) and 7.94 µM (inconclusive), respectively. Turning to `Cc1cccc(/C=C2\CCC(=C3SCCCS3)C2=O)c1`, the EC50 in data set [1] was 5.22 µM (active); in data set [2], 8.14 µM (active); in data set [3], 9.28 µM (active). For `CCCNS(=O)(=O)c1ccc(Oc2ncc(C(F)(F)F)cc2Cl)cc1`, in data set [4], the EC50 is > 53 µM (inactive).

In the case of `O=C1c2ccccc2C(=O)N1CC1CCCO1` (stereo not drawn), the values for the AC50 on Cytochrome P450 2C9 and at Cytochrome P450 2C19 (read-out: AC50) were 0.398 µM (inconclusive) and 0.355 µM (inconclusive), respectively.

`CC(CNC(=O)c1ccc(NC2=NC3CS(=O)(=O)CC3S2)cc1)c1ccccc1` (stereo not drawn): the EC50 in data set [4] is > 53 µM (inactive).

As to `O=C(NCC(c1ccco1)N1CCCC1)c1cc2cc(Cl)ccc2o1` (stereo not drawn), the EC50 in data set [4] is > 53 µM (inactive).

Take `CC(=O)Nc1ccc(S(=O)(=O)NC(CC(=O)NCCC2=CCCCC2)C(C)C)cc1` (stereo not drawn): the AC50 on Cytochrome P450 2D6 is 0.708 µM (inconclusive); at Cytochrome P450 2C9, 8.91 µM (inconclusive).

Regarding `c1ccc2sc(N3CCN(Cc4ccc5c(c4)OCO5)CC3)nc2c1`, the AC50 at Cytochrome P450 2D6 was 39.8 µM (inconclusive); at Cytochrome P450 2C9, 7.94 µM (inconclusive). Consider `C/C(=N\OCc1cccc(C(=O)O)c1)c1ccc(Cl)cc1`, for which the EC50 in data set [1] is 7.12 µM (inconclusive); in data set [2] it was 4.77 µM (active); in data set [3] it was 0.254 µM (active).

Regarding `COc1ccccc1CNc1ncncc1-c1cccc(NS(C)(=O)=O)c1`, the AC50 on Cytochrome P450 2D6 was 12.6 µM (inconclusive).
